Laboratory results reported in patent US6919314B1, “Bioactive whey protein hydrolysate” (New Zealand Dairy Board, priority 1998, dated 2005).
Marks after values point to notes of the source that are not given here. Ends that are not written are not given here. Peptide text beside a SMILES is read from it.

How the values were obtained:
rabbit lung ACE = molecular target: T1, rabbit lung ACE (Oryctolagus cuniculus, UniProt P12822); test: ACE-I activity using FAPGG as substrate (method of Cushman & Cheung); format: biochemical; conditions: colorimetric substrate FAPGG; for IC50: purified peptide, read-out: Activity (IC50 in mg L^−1) (converted)
T1 construct: reagents from Sigma product 305-10) consisting of rabbit lung ACE; purchased Sigma Chemical Corporation, St Louis, Mo., USA 305-10; host or cells: rabbit lung (tissue-derived enzyme)
T1 sequence (P12822 34-1310): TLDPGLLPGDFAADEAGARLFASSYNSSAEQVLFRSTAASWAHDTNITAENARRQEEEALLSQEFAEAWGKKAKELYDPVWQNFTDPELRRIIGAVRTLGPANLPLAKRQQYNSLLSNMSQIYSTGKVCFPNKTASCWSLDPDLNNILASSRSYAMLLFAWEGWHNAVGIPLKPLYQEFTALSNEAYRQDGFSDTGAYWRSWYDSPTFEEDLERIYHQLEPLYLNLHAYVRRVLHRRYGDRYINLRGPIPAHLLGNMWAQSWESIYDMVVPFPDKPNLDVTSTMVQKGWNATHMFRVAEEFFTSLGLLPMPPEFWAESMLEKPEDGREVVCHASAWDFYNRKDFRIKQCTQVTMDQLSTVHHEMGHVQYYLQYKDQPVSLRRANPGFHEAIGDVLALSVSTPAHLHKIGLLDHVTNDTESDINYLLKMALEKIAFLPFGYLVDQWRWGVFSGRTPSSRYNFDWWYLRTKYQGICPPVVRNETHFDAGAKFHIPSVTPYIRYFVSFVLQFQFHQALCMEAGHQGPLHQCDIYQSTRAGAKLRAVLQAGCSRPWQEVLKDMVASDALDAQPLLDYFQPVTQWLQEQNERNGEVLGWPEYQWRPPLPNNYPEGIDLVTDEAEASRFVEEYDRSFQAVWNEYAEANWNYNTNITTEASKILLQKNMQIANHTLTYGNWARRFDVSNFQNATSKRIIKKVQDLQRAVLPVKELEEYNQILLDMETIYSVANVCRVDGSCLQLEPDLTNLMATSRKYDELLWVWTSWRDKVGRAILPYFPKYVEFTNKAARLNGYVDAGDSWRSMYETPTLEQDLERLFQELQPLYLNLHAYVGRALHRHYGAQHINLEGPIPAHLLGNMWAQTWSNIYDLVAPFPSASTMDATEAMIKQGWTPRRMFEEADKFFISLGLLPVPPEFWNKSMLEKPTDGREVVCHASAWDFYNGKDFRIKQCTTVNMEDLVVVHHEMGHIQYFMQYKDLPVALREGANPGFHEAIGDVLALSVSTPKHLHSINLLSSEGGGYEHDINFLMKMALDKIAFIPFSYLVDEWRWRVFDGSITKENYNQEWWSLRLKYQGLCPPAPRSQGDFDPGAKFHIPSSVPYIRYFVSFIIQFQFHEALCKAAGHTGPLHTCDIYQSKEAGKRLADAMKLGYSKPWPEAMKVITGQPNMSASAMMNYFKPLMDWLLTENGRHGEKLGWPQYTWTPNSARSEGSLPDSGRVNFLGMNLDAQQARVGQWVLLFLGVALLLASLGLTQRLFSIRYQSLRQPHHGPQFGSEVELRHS
Protocol: A pH of 7.0 and an enzyme substrate ratio of 0.3% w/w was used for the hydrolysis. The hydrolysate was adjusted to pH 5.0 and heated at 65° C. for 30 min to inactivate the enzyme. […] ACE-I activities are expressed as the amount of material (g/L) needed to reduce the activity of the ACE-I enzyme by 50%.
Each fraction was lyophilised and the amount of peptide material present was measured gravimetrically. […] If a peptide inhibits ACE, the change in absorbance at 340 nm is reduced. […] The eluate was collected using the fraction collector set to collect 0.5 min fractions.
Samples from each fraction were analysed using an analytical reverse-phase HPLC column, and those fractions containing a single, identical peptide were pooled. Each pooled fraction was lyophilised and the weight of the peptide present was determined gravimetrically. The purified peptides were assayed for ACE-I activity as before and the IC50 was calculated for […] individual peptide.

[1] = test system: spontaneously hypertensive rats (SHR/N); test: In vivo blood pressure in spontaneously hypertensive rats (tail cuff); design: species or system rat; conditions: 30 mg/Kg bodyweight/day for 8 weeks, compared with the hydrolysate
Text: The rat strain has been specifically selected for their development of high blood pressure on maturing, and is used extensively to monitor the effect of blood pressure lowering agents.
Eight week old rats were individually housed in plastic rat cages and kept in temperature controlled facilities throughout the trial. They had unlimited access to water and were fed commercial rat chow ad libitum. The test products were given orally as a single daily dose for 8 weeks during which time changes in blood pressure were monitored.

Molecule | IC50 (rabbit lung ACE) [µM] | other results
VTSTAV [VTSTAV, Val-Thr-Ser-Thr-Ala-Val] | 52 | 
LHLPLP [LHLPLP, Leu-His-Leu-Pro-Leu-Pro] | 10.2 | 
Leu-Phe-Arg-Glu (LFRE; not fully specified; printed: Leu-Phe-Arg-Glu) [LFRQ, origin αs1-CN(136-139)] |  | Activity (IC50 in mg L^−1) (rabbit lung ACE; activity measured with that of another peptide of unknown origin): 17^h mg L^−1
ALPMH [ALPMH, Ala-Leu-Pro-Met-His] | 21.1 | 
C[C@H](CS)C(=O)N1CCC[C@H]1C(=O)O [captopril] |  | systolic blood pressure [1]: effect of the hydrolysate was not as great as that of captopril

Now from value to molecule, other results behind:

IC50 (rabbit lung ACE) [µM] | Molecule | other results
27.6 | LDIQK [LDIQK, Leu-Asp-Ile-Gln-Lys] | 
29.7 | LIVTQ [LIVTQ, Leu-Ile-Val-Thr-Gln] | 
71.8 | CSCC[C@H](N)C(=O)N[C@@H](CCCCN)C(=O)NCC(=O)O [MKG, Met-Lys-Gly] (H-Met-Lys-Gly-OH; N-terminus and C-terminus assumed) | 
59.7 | CC(C)C[C@H](N)C(=O)N[C@@H](Cc1ccccc1)C(=O)N[C@@H](CO)C(=O)N[C@@H](Cc1c[nH]cn1)C(=O)O [LFSH, Leu-Phe-Ser-His] (H-LFSH-OH; N-terminus and C-terminus assumed) | 
26.1 | ILKEKH [ILKEKH, Ile-Leu-Lys-Glu-Lys-His] | 
9.22 | LVYPFPGPIPNSLPQNIPP | 
